{
  "source": "patent US20080220103A1",
  "about": "“METHOD FOR TREATING/CONTROLLING/KILLING FUNGI AND BACTERIA ON LIVING ANIMALS” (priority 2005, published 2008)",
  "key": {"All Yeasts": {"system": "All Yeasts", "assay": "Minimum fungicidal concentration, yeasts", "assay_type": "cell-based", "method": "Minimum fungicidal concentration (MFC): The minimum fungicidal concentrations of various agents were determined using the technique described by Canton et al. (Antimicrob Agents Chemother. 2004 8:2477-82). In that method, fungal conidia were collected following growth on potato dextrose agar (PDA) plates and were used to inoculate 96-well plates containing different concentrations of agents. Following incubation at 35° C. for 4 days (for dermatophytes) or 24 hours (for yeast), wells showing no visible growth were cultured to determine the MFC (defined as the lowest concentration of a given agent that kills>99.999% of fungal conidia or spores). The MFC value represents the level of the agent at which spores or conidia were killed."}, "T. rubrum [1]": {"system": "T. rubrum", "assay": "Pre-treatment insole assay, combination (FIG. 10)", "assay_type": "cell-based, Trichophyton rubrum", "details": "0.01% synthetic agent, 3% tea tree oil, singly or combined", "protocol": "Pre-treatment assays: To evaluate the ability of different agents to prevent fungal contaminations of shoes, PDA plates were prepared on which 10^4 T. mentagrophytes cells were evenly spread. Next, discs from insoles and leather were treated as follows (with either agent or control vehicle): discs were pretreated with a single spray, spraying for 15 second or 30 second. Other discs were immersed in agent or vehicle for 30 min. Following this treatment, discs were air-dried by placing them in a Petri plate for 1 min. These dried discs were then placed (drug side down) on the seeded PDA plates. Plates were then incubated for 4 days at 30° C. Following incubation, fungal growth was recorded. […] Diameter of the clearance zone (CZD) was measured. The relative activity of different agents and control were assessed. […] To determine whether using combination of synthetic compounds and essential oils will allow the use of low concentrations of synthetic drugs, we tested the ability of combination of 0.01% tolnaftate and 3% tea tree oil to prevent shoe contamination using the pre- and post-treatment insole bioassays described above."}, "[2]": {"system": "terbinafine-resistant T. rubrum", "assay": "MIC against terbinafine-resistant isolates", "assay_type": "cell-based, Trichophyton rubrum", "method": "Minimum Inhibitory Concentration (MIC): Minimum inhibitory concentrations of synthetic and semisynthetic and natural products against dermatophytes were determined using a modification of the Clinical Laboratory Standards Institute (CLSI, formerly National Committee of Clinical Laboratory Standards, NCCLS) M38A standard method for dermatophytes, while MIC of these agents against Candida species were determined using the CLSI M27-A2 methodology. The method used to determine the MIC against bacteria was based on the CLSI document M7-A7.\nFor dermatophytes, serial dilutions of terbinafine, tolnaftate were prepared in a range of 0.004-2 μg/ml, while for miconazole concentrations ranged between 0.015-8 μg/ml. Finally, for essential oils, the concentrations tested were between 0.03-16 μg/ml. The only exception was tea tree oil where dilutions were prepared in a range of 0.0078-4 μg/ml. The MIC was read at 4 days post inoculation and defined as the lowest concentration of an agent to inhibit 80% of fungal growth as compared to the growth control (Table 2)."}, "T. rubrum [3]": {"system": "T. rubrum", "assay": "Post-treatment insole assay, combination (FIG. 10)", "assay_type": "cell-based, Trichophyton rubrum", "details": "0.01% tolnaftate, 3% tea tree oil, singly or combined"}, "[4]": {"details": "Trichophyton rubrum, terbinafine-resistant T. rubrum, n = 11"}},
  "data": [
    {"smiles": "Clc1ccc(COC(Cn2ccnc2)c2ccc(Cl)cc2Cl)c(Cl)c1", "note": "(centres unmarked) [Miconazole, miconazole]", "values": [
      {"measurement": "MFC Range", "setting": "All Yeasts", "value": "0.5 to 2", "unit": "µg/mL"}
    ]},
    {"smiles": "CN(C/C=C/C#CC(C)(C)C)Cc1cccc2ccccc12", "note": "[Terbinafine, terbinafine]", "values": [
      {"measurement": "effect of pretreatment of insoles on fungal growth", "setting": "T. rubrum [1]", "value": "did not result in any inhibition of fungal growth"},
      {"measurement": "MIC", "setting": "[2]; Trichophyton rubrum, T. rubrum MRL 666", "value": 16, "unit": "µg/mL"},
      {"measurement": "MIC", "setting": "[2]; Trichophyton rubrum, T. rubrum MRL 670", "value": 16, "unit": "µg/mL"},
      {"measurement": "MIC", "setting": "[2]; Trichophyton rubrum, T. rubrum MRL 671", "value": 4, "unit": "µg/mL"},
      {"measurement": "MIC", "setting": "[2]; Trichophyton rubrum, T. rubrum MRL 1386", "value": 4, "unit": "µg/mL"},
      {"measurement": "MIC", "setting": "[2]; Trichophyton rubrum, T. rubrum MRL 1806", "value": 4, "unit": "µg/mL"},
      {"measurement": "MIC", "setting": "[2]; Trichophyton rubrum, T. rubrum MRL 1807", "value": 4, "unit": "µg/mL"},
      {"measurement": "MIC", "setting": "[2]; Trichophyton rubrum, T. rubrum MRL 1808", "value": 16, "unit": "µg/mL"},
      {"measurement": "MIC", "setting": "[2]; Trichophyton rubrum, T. rubrum MRL 1809", "value": 16, "unit": "µg/mL"},
      {"measurement": "MIC", "setting": "[2]; Trichophyton rubrum, T. rubrum MRL 1810", "value": 4, "unit": "µg/mL"},
      {"measurement": "MIC", "setting": "[2]; Trichophyton rubrum, T. rubrum MRL 2499", "value": 4, "unit": "µg/mL"},
      {"measurement": "MIC", "setting": "[2]; Trichophyton rubrum, T. rubrum MRL 2727", "value": 2, "unit": "µg/mL"},
      {"measurement": "MIC50", "setting": "[2]; [4]", "value": 4, "unit": "µg/mL"},
      {"measurement": "MIC90", "setting": "[2]; [4]", "value": 16, "unit": "µg/mL"},
      {"measurement": "MIC Range", "setting": "[2]; terbinafine-resistant T. rubrum, n = 11", "value": "2 to 16", "unit": "µg/mL"}
    ]},
    {"smiles": "Cc1cccc(N(C)C(=S)Oc2ccc3ccccc3c2)c1", "note": "[Tolnaftate, tolnaftate]", "values": [
      {"measurement": "effect of post-contamination treatment of insoles on fungal growth", "setting": "T. rubrum [3]", "value": "did not prevent growth of fungus"}
    ]}
  ]
}
